Measurements published in patent US20240351997A1, “NOVEL PARP7 INHIBITOR AND USE THEREOF” (SHANGHAI QILU PHARMACEUTICAL RESEARCH AND DEVELOPMENT …, priority 2021, published 2024).

Biological target: PARP7 (Homo sapiens (Human), UniProt Q7Z3E1)
Test: In vitro enzymology experiment of PARP7 (enzymatic inhibition)
Assay type: biochemical
Summary of the method: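 Histone-coated plate ADP-ribosylation format: compound preincubated 10 min at room temperature with preincubated (25 °C, 10 min) enzyme mixture; incorporated biotin detected by streptavidin-HRP and QuantaRed fluorescence (Ex550/Em620).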

Chain of PARP7 (Q7Z3E1 whole entry): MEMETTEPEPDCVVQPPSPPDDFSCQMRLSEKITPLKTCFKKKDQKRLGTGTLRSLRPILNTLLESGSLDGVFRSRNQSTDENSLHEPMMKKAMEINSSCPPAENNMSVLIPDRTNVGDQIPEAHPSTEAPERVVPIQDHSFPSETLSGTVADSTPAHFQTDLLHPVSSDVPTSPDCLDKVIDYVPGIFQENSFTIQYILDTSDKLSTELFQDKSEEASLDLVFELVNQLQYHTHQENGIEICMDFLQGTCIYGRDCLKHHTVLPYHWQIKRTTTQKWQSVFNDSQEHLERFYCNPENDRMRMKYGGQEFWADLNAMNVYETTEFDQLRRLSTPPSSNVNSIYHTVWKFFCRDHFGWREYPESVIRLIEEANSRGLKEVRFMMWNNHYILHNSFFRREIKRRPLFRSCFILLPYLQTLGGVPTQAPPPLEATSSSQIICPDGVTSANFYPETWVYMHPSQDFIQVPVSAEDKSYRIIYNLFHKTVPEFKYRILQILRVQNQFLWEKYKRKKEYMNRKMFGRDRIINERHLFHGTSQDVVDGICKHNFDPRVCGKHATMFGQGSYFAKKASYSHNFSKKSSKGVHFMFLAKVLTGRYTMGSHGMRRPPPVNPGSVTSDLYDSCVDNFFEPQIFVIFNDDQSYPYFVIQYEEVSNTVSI

| IC50 [nM] | Compound |
| --- | --- |
| 2.78 | Cc1ccc(OC(=O)N2CCN(c3ncc(C(F)(F)F)cn3)CC2)cc1-c1c[nH]c(=O)c(C(F)(F)F)c1 [Example 135, 4-Methyl-3-(6-oxo-5-(trifluoromethyl)-1,6-dihydropyridin-3-yl)phenyl 4-(5-(trifluoromethyl)pyrimidin-2-yl)piperazine-1-carboxylate] |
| 2.4 | O=C(Oc1ccnc(-c2c[nH]c(=O)c(C(F)(F)F)c2)c1)N1CCN(c2ncc(C(F)(F)F)cn2)CC1 [Example 137, 6′-Oxo-5′-(trifluoromethyl)-1′,6′-dihydro-[2,3′-bipyridin]-4-yl 4-(5-(trifluoromethyl)pyrimidin-2-yl)piperazine-1-carboxylate] |
| 1.8 | Cc1cc(OC(=O)N2CCN(c3ncc(C(F)(F)F)cn3)CC2)cc(-c2c[nH]c(=O)c(C(F)(F)F)c2)c1 [Example 138, 3-Methyl-5-(6-oxo-5-(trifluoromethyl)-1,6-dihydropyridin-3-yl)phenyl 4-(5-(trifluoromethyl)pyrimidin-2-yl)piperazine-1-carboxylate] |
| 0.9 | O=C(Oc1ccc(F)c(-c2c[nH]c(=O)c(C(F)(F)F)c2)c1)N1CCN(c2ncc(C(F)(F)F)cn2)CC1 [Example 139, 4-Fluoro-3-(6-oxo-5-(trifluoromethyl)-1,6-dihydropyridin-3-yl)phenyl 4-(5-(trifluoromethyl)pyrimidin-2-yl)piperazine-1-carboxylate] |
| 2.86 | C[C@@H]1CN(c2ncc(C(F)(F)F)cn2)CCN1C(=O)Oc1cccc(-c2c[nH]c(=O)c(C(F)(F)F)c2)c1 [Example 140, 3-(6-Oxo-5-(trifluoromethyl)-1,6-dihydropyridin-3-yl)phenyl (R)-2-methyl-4-(5-(trifluoromethyl)pyrimidin-2-yl)piperazine-1-carboxylate] |
| 1.5 | N#Cc1ccc(N2CCN(C(=O)OCCc3c[nH]c(=O)c(C(F)(F)F)c3)CC2)nc1 [Example 144, 2-(6-Oxo-5-(trifluoromethyl)-1,6-dihydropyridin-3-yl)ethyl 4-(5-cyanopyridin-2-yl)piperazine-1-carboxylate] |
| 2.3 | C[C@H]1CN(c2ncc(C(F)(F)F)cn2)C[C@H](C)N1C(=O)OCCc1c[nH]c(=O)c(C(F)(F)F)c1 [Example 145, 2-(6-Oxo-5-(trifluoromethyl)-1,6-dihydropyridin-3-yl)ethyl (2S,6S)-2,6-dimethyl-4-(5-(trifluoromethyl)pyrimidin-2-yl)piperazine-1-carboxylate] |
| 0.77 | C[C@@H]1CN(c2ncc(C(F)(F)F)cn2)C[C@@H](C)N1C(=O)OCCc1c[nH]c(=O)c(C(F)(F)F)c1 [Example 148, 2-(6-Oxo-5-(trifluoromethyl)-1,6-dihydropyridin-3-yl)ethyl (2R,6R)-2,6-dimethyl-4-(5-(trifluoromethyl)pyrimidin-2-yl)piperazine-1-carboxylate] |
| 0.64 | C[C@@H]1CN(C(=O)OCCc2c[nH]c(=O)c(C(F)(F)F)c2)C[C@@H](C)N1c1ncc(C(F)(F)F)cn1 [Example 149, 2-(6-Oxo-5-(trifluoromethyl)-1,6-dihydropyridin-3-yl)ethyl (3R,5R)-3,5-dimethyl-4-(5-(trifluoromethyl)pyrimidin-2-yl)piperazine-1-carboxylate] |
| 0.71 | C[C@@H]1CN(c2ncc(C(F)(F)F)cn2)C[C@H](C)N1C(=O)OCCc1c[nH]c(=O)c(C(F)(F)F)c1 [Example 150, 2-(6-Oxo-5-(trifluoromethyl)-1,6-dihydropyridin-3-yl)ethyl (2S,6R)-2,6-dimethyl-4-(5-(trifluoromethyl)pyrimidin-2-yl)piperazine-1-carboxylate] |
| 1.1 | C[C@@H]1CN(c2ncc(C3CC3)cn2)C[C@H](C)N1C(=O)OCCc1c[nH]c(=O)c(C(F)(F)F)c1 [Example 151, 2-(6-Oxo-5-(trifluoromethyl)-1,6-dihydropyridin-3-yl)ethyl (2R,6S)-4-(5-cyclopropylpyrimidin-2-yl)-2,6-dimethylpiperazine-1-carboxylate] |
| 0.76 | O=C(OCCc1c[nH]c(=O)c(C(F)(F)F)c1)N1CCN(c2ncc(C3CC3)cn2)CC1 [Example 152, 2-(6-Oxo-5-(trifluoromethyl)-1,6-dihydropyridin-3-yl)ethyl 4-(5-cyclopropylpyrimidin-2-yl)piperazine-1-carboxylate] |
| 0.65 | C[C@@H]1CN(C(=O)OCCc2c[nH]c(=O)c(C(F)(F)F)c2)C[C@H](C)N1c1ncc(C(F)(F)F)cn1 [Example 153, 2-(6-Oxo-5-(trifluoromethyl)-1,6-dihydropyridin-3-yl)ethyl (3R,5S)-3,5-dimethyl-4-(5-(trifluoromethyl)pyrimidin-2-yl)piperazine-1-carboxylate] |
| 0.59 | C[C@@H]1CN(c2ncc(C(F)(F)F)cn2)[C@@H](C)CN1C(=O)O[C@@H](C)Cc1c[nH]c(=O)c(C(F)(F)F)c1 [Example 155, (S)-1-(6-Oxo-5-(trifluoromethyl)-1,6-dihydropyridin-3-yl)propan-2-yl (2R,5S)-2,5-dimethyl-4-(5-(trifluoromethyl)pyrimidin-2-yl)piperazine-1-carboxylate] |
| 0.98 | C[C@@H]1CN(c2ncc(C(F)(F)F)cn2)C[C@H](C)N1C(=O)O[C@@H](C)Cc1c[nH]c(=O)c(C(F)(F)F)c1 [Example 156, (S)-1-(6-Oxo-5-(trifluoromethyl)-1,6-dihydropyridin-3-yl)propan-2-yl (2R,6S)-2,6-dimethyl-4-(5-(trifluoromethyl)pyrimidin-2-yl)piperazine-1-carboxylate] |
| 0.9 | C[C@@H]1CN(C(=O)O[C@@H](C)Cc2c[nH]c(=O)c(C(F)(F)F)c2)C[C@@H](C)N1c1ncc(C(F)(F)F)cn1 [Example 157, (S)-1-(6-Oxo-5-(trifluoromethyl)-1,6-dihydropyridin-3-yl)propan-2-yl (3R,5R)-3,5-dimethyl-4-(5-(trifluoromethyl)pyrimidin-2-yl)piperazine-1-carboxylate] |
| 5 | C[C@@H]1CN(c2ncc(C(F)(F)F)cn2)C[C@@H](C)N1C(=O)O[C@@H](C)Cc1c[nH]c(=O)c(C(F)(F)F)c1 [Example 158, (S)-1-(6-Oxo-5-(trifluoromethyl)-1,6-dihydropyridin-3-yl)propan-2-yl (2R,6R)-2,6-dimethyl-4-(5-(trifluoromethyl)pyrimidin-2-yl)piperazine-1-carboxylate] |
| 0.9 | C[C@@H](Cc1c[nH]c(=O)c(C(F)(F)F)c1)OC(=O)N1[C@@H](C)CN(c2ncc(C(F)(F)F)cn2)C[C@@H]1C [Example 159, (S)-1-(6-Oxo-5-(trifluoromethyl)-1,6-dihydropyridin-3-yl)propan-2-yl (2S,6S)-2,6-dimethyl-4-(5-(trifluoromethyl)pyrimidin-2-yl)piperazine-1-carboxylate] |
| 1.3 | C[C@@H]1CN(C(=O)O[C@@H](C)Cc2c[nH]c(=O)c(C(F)(F)F)c2)[C@@H](C)CN1c1ncc(C(F)(F)F)cn1 [Example 160, (S)-1-(6-Oxo-5-(trifluoromethyl)-1,6-dihydropyridin-3-yl)propan-2-yl (2S,5R)-2,5-dimethyl-4-(5-(trifluoromethyl)pyrimidin-2-yl)piperazine-1-carboxylate] |

| Compound | IC50 [nM] |
| --- | --- |
| O=C(Oc1cncc(-c2c[nH]c(=O)c(C(F)(F)F)c2)c1)N1CCN(c2ncc(C(F)(F)F)cn2)CC1 [Example 136, 6′-Oxo-5′-(trifluoromethyl)-1′,6′-dihydro-[3,3′-bipyridin]-5-yl 4-(5-(trifluoromethyl)pyrimidin-2-yl)piperazine-1-carboxylate] | 3.53 |
